Experimental data reported in BindingDB's records for doi:10.1016/j.bmcl.2019.126886 (Tokyo University of Agriculture, 2020).
pIC50: −log10 of the molar value.

Test: Inhibition of PKCbeta in rat RBL2H3 cells assessed as inhibition of mouse anti-DNP IgE-stimulated beta-hexosaminidase release preincubated for 15 mins followed by mouse anti-DNP IgE stimulation and measured after 3 hrs by 4-nitropheny1-2-acetamide-2-deoxy-beta-glucopyranoside substrate based colorimetric method

pIC50: 4.98
Structure (SMILES): O=C1O/C(=C(/C(=O)O)c2ccc(O)c(O)c2)C(O)=C1c1ccc(O)c(O)c1
